Measured values: US12612395B2, “Rocaglate derivatives and uses thereof” (TRUSTEES OF BOSTON UNIVERSITY, priority 2023, dated 2026)
“And” between values parts separate entries of the source, which are not always exact repeats. Equal entries are not always repeated. Where two headings read alike, the source gives them in different places.

Tests used:
DDX3X = biological target: T1, DDX3X (Homo sapiens, UniProt O00571); assay: PISA assay in GBM0308 cell lysates, DDX3X; type: binding; conditions: GBM0308 lysate, compound 10 μM, AMP-PNP and (AG)8 RNA added
T1 construct: endogenous in cells; host or cells: GBM0308 glioblastoma stem cells (lysate)
Text: Derivatization-free target identification using a modified proteome integral solubility alteration (PISA) assay. The inventors next pursued proteome-wide target identification to better understand the target profiles of CSC-selective rocaglates. To enable cross-compound comparisons of target engagement, the inventors opted to use the Proteome Integral Solubility Alteration (PISA) assay,^29 a derivative of the mass spectrometry-based Cellular Thermal Shift Assay (MS-CETSA). In MS-CETSA,^30,31 target engagement is inferred through proteome-wide analysis of compound-induced changes to protein thermal stability; proteins with a shift in their half-maximal thermal denaturation temperature upon compound treatment are flagged as potential targets. The PISA assay obviates the need for MS-CETSA-derived thermal denaturation curves through curve integration by pooling of individual temperature points into a single “integral” sample for each treatment condition, thereby increasing throughput (FIG. 9). In contrast to MS-CETSA (which relies on curve comparisons), PISA determinations are performed by simply comparing soluble protein abundance levels between compound- and DMSO-treated samples. Importantly, protein fold-change measurements in PISA experiments generally scale with the thermal shift derived from CETSA experiments, and the magnitude of a thermal shift can inform on relative affinity between compounds and individual targets.^30,32-25 Maximal stability changes are protein-specific,^36 however, precluding estimations of preference for one target over another. Thus, PISA allows for simultaneous target profiling and comparisons of binding affinity between different compounds within a given target.
Of note, we also detected stabilization of DDX3Y, a paralog which shares >90% sequence similarity with DDX3X.
PISA assay in GBM0308 cell lysates: The PISA assay was performed in lysates as described by Gaetani and coworkers^S2 with slight modification. […] Lysate concentration was determined using a Pierce BCA Protein Assay Kit and adjusted to 2.0 mg/mL in lysis buffer. […]

[1] = system: cap-dependent translation (FF cistron of FF-HCV-Ren); assay: In vitro translation assay, bicistronic FF-HCV-Ren mRNA reporter in Krebs-2 extracts; type: biochemical
Text: Given these observations, the inventors next sought to interrogate the effects of compound (−)-20 in secondary assays for both eIF4A and DDX3 engagement. […] While inherent differences between the FP assay conditions (e.g. probe affinity, protein mobility in FP buffer) preclude direct comparison of absolute AmP values across the two different proteins, the inventors noted that relative anti-CSC potencies for these compounds ((−)-7>(−)-5≈(−)-20) were similar to their relative degrees of clamping for DDX3X and eIF4A1. To follow up on these findings, the inventors performed in vitro translation experiments using a bicistronic mRNA reporter construct FF-HCV-Ren, where translation of the firefly luciferase (FF) cistron is cap-dependent, while translation of the Renilla luciferase (HCV-Ren) cistron is driven off an HCV-IRES, rendering translation of this cistron cap-independent.
In vitro translation assays: In vitro translations were performed using 4 ng/μL of bicistronic FF-HCV-Ren/pA51 reporter mRNA and the indicated compound concentrations in Krebs-2 extracts at 30° C. for 1 h as described previously.^S10 Cap-dependent FLuc and cap-independent RLuc activities were assessed on a Berthold Lumat LB 9507 luminometer (Berthold Technologies). Curves were determined using a non-linear regression model on GraphPad Prism 8.4.0.

GBM0308 neurospheres = assay: Neurosphere formation assay (single neurosphere, PI/Hoechst); type: cell-based; conditions: three days treatment
Method: To gain additional mechanistic insights into GBM cell death induced by (−)-20, the inventors conducted several functional assays. The inventors first derived a single neurosphere from GBM0308 cells cultured in stem cell conditions, which was treated with either DMSO or (−)-20 at varying doses for three days followed by staining with PI and Hoechst dyes and subsequent imaging. […] To capture the kinetics of apoptotic events, the inventors employed caspase 3/7 staining of GBM0308 neurospheres treated with either DMSO or (−)-20 and subsequently evaluated at three timepoints over a 48-hour period. […] (FIG. 5B).
Neurosphere Formation Assays: Single neurospheres were generated by seeding GBM0308 cells (400 cells per well) in a 384-well ultra-low attachment round bottom microplate (Nexcelom Bioscience, ULA-384 U). The plates were then centrifuged at 300×g for 10 minutes to cluster cells at the bottom of the wells, followed by incubation at 37° C. and 5% CO2 for 4 days to allow the formation of single neurospheres and treated with either DMSO or drugs at concentrations of 3.3, 1.11, 0.37, 0.12, 0.041, 0.013, 0.004 μM. On Day 7, neurospheres were stained with propidium iodide and Hoechst, as described above. The “neurosphere 1+Mask” application was used to measure the fluorescent intensities of PI, using Celigo cytometer as described previously.^70

[2] = FF cistron, Krebs-2 extracts, 30° C., 1 h, read-out: cap-dependent translation inhibition EC50

T1 sequence (O00571 whole entry): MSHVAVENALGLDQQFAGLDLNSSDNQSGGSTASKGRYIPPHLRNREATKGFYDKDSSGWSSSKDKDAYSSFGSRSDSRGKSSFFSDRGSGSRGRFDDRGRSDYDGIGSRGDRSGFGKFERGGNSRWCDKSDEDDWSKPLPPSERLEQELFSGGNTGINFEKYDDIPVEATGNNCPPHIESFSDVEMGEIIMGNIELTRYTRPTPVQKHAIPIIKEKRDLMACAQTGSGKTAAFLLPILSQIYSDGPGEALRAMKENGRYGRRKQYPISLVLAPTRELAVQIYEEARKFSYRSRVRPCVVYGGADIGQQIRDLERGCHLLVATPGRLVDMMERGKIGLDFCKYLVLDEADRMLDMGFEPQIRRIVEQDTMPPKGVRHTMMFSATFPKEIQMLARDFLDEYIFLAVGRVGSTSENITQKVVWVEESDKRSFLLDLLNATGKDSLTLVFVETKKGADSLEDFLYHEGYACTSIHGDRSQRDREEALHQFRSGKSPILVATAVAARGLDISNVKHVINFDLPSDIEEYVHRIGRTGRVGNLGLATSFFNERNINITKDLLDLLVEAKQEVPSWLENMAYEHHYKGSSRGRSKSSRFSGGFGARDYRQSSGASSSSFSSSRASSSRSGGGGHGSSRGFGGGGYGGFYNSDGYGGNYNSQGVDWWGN

Structure (SMILES)	thermal stabilization of DDX3X (PISA), in words (DDX3X)	EC50 [1, 2]	EC50 ([1]; approximate value, read-out: translation inhibition EC50) [nM]	concentration from which cytotoxic effects on CSC neurospheres are seen (PI staining) (GBM0308 neurospheres) [nM]	effect on neurosphere size, in words (GBM0308 neurospheres; varying doses)
CONC(=O)[C@H]1[C@@H](O)[C@@]2(O)c3c(OC)cc(OC)cc3O[C@@]2(c2ccc(Br)cc2)[C@@H]1c1ccccc1 [(−)-7, SDS-1-021]	stabilized	–	–	–	–
COc1cc(OC)c2c(c1)O[C@@]1(c3ccc(Br)cc3)[C@H](c3ccccc3)[C@@H](C(=O)NS(=O)(=O)N(C)C)[C@@H](O)[C@@]21O [(−)-20, (1R,2R,3S,3aR,8bS)-3a-(4-bromophenyl)-N—(N,N-dimethylsulfamoyl)-1,8b-dihydroxy-6,8-dimethoxy-3-phenyl-2,3,3a,8b-tetrahydro-1H-cyclopenta[b]benzofuran-2-carboxamide]	stabilized	937 nM	~1000	≥ 120	dose-dependent reduction in neurosphere size
CONC(=O)[C@H]1[C@@H](O)[C@@]2(O)c3c(OC)cc(OC)cc3O[C@@]2(c2ccc(OC)cc2)[C@@H]1c1ccccc1 [(−)-5, CR-1-31b, reference compound]	–	215 nM and ~200 nM	–	–	–
